Measurements taken from US9486461B2, “Methods and compositions for inducing apoptosis by stimulating ER stress” (UNIVERSITY OF SOUTHERN CALIFORNIA, priority 2007, dated 2016).

System: polyubiquitinated proteins in U251 cells
Assay: Western blot of polyubiquitinated proteins, U251
Type: cell-based, human
Details: U251, increasing concentrations, 24 hours
Protocol: Total cell lysates were analyzed by Western blot with specific antibodies to ubiquitin, GRP78, CHOP, and caspase 4. Actin was used as a loading control. […] Note that in the caspase 4 blots several non-specific background bands were observed (consistent with similar observations in the literature); the specific bands were identified with the use of various controls (not shown) and comparison to the literature.
Total cell lysates were prepared and analyzed by Western blot analysis as described earlier (19). Immunohistochemical analysis of protein expression in tumor tissues was performed with the use of the Vectastain avidin-biotin complex method kit (Vector Laboratories) as described previously (32). The primary antibodies were purchased from Cell Signaling Technology or Santa Cruz Biotechnology, Inc. and used according to the manufacturers' recommendations. All immunoblots and stainings were repeated at least once to confirm the results.

Q: Which “accumulation of polyubiquitinated proteins” value does the source give for `Cc1ccc(C)c(-c2cc(C(F)(F)F)nn2-c2ccc(S(N)(=O)=O)cc2)c1` [DMC, 4-[5-(2,5-dimethylphenyl)-3-(trifluoromethyl)-1H-pyrazol-1-yl]benzenesulfonamide] here?
A: The value was “did not cause substantial accumulation of polyubiquitinated proteins”.
